Test results reported in article PMC3813303 (Biochemistry, 2013).

Molecular target: T1, Acel0264 (Acidothermus cellulolyticus, UniProt A0LRH8)
T1 sequence (A0LRH8 1-356): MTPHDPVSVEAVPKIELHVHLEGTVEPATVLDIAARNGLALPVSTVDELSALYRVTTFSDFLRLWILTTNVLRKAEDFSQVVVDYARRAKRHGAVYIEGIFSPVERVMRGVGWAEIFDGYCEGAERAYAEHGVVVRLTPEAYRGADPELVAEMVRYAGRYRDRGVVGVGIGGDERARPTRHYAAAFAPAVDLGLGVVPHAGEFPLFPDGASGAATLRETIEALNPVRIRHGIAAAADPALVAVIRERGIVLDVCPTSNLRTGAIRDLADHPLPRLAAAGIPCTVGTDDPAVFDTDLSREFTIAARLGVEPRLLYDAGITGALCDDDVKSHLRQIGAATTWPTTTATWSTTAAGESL
Experiment: absorbance decrease at […] nm
Assay type: biochemical
Conditions: read-out: Acel0264 / Km; pH 7.5, 30 °C

SMILES: CCNC(=O)[C@H]1O[C@@H](n2cnc3c(N)ncnc32)[C@H](O)[C@@H]1O [NECA, 1-(6-Amino-9H-purin-9-yl)-1-deoxy-N-ethyl-β-D-ribofuranuronamide]
- Km: 61 µM
